Assay results: PubChem BioAssay AID1963861 (Molecular Pharmacology Branch, DTP, NCI, 2024)

Tested on: 885724-159-R-J1-PDC KRAS PDC multicell spheroid viability
Experiment: Anticancer human tumor 885724-159-R-J1-PDC patient-derived pancreatic adenocarcinoma cell line growth inhibition [KRAS2]
Conditions: for IC50: curve of first compound; for viability, T/C: stronger effect = lower value; active = viability on the fitted dose curve at most 10% of control; inactive = the rest
Procedure, shortened: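 KRAS-mutant tumor cells were grown as spheroids with HUVEC endothelial cells and human MSCs as stroma. Targeted agents were tested alone and with KRAS pathway inhibitors. Doses started at or near clinical Cmax, or 10 microM, descending half-log.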

[1] = second compound 0.1 µM, first compound 0.01 µM
[2] = second compound 0.1 µM, first compound 0.0316 µM
[3] = second compound 0.1 µM, first compound 0.1 µM
[4] = second compound 0.1 µM, first compound 0.316 µM
[5] = second compound 0.1 µM, first compound 1 µM
[6] = second compound 0.1 µM, first compound 3.16 µM
[7] = second compound 0.316 µM, first compound 0.01 µM
[8] = second compound 0.316 µM, first compound 0.0316 µM
[9] = second compound 0.316 µM, first compound 0.1 µM
[10] = second compound 0.316 µM, first compound 0.316 µM
[11] = second compound 0.316 µM, first compound 1 µM
[12] = second compound 0.316 µM, first compound 3.16 µM
[13] = second compound 1 µM, first compound 0.01 µM
[14] = second compound 1 µM, first compound 0.0316 µM
[15] = second compound 1 µM, first compound 0.1 µM
[16] = second compound 1 µM, first compound 0.316 µM
[17] = second compound 1 µM, first compound 1 µM
[18] = second compound 1 µM, first compound 3.16 µM
[19] = second compound 3.16 µM, first compound 0.01 µM
[20] = second compound 3.16 µM, first compound 0.0316 µM
[21] = second compound 3.16 µM, first compound 0.1 µM
[22] = second compound 3.16 µM, first compound 0.316 µM
[23] = second compound 3.16 µM, first compound 1 µM
[24] = second compound 3.16 µM, first compound 3.16 µM
[25] = second compound 10 µM, first compound 0.01 µM
[26] = second compound 10 µM, first compound 0.0316 µM
[27] = second compound 10 µM, first compound 0.1 µM
[28] = second compound 10 µM, first compound 0.316 µM
[29] = second compound 10 µM, first compound 1 µM
[30] = second compound 10 µM, first compound 3.16 µM
[31] = second compound 0.1 µM, first compound 10 µM
[32] = second compound 0.316 µM, first compound 10 µM
[33] = second compound 1 µM, first compound 10 µM
[34] = second compound 3.16 µM, first compound 10 µM
[35] = second compound 10 µM, first compound 10 µM
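Also: spheroids exposed to agents for 7 days before readout.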

CC1COCCN1c1cc(-c2ccnn2C)c2ccnc(-c3ccn[nH]3)c2n1 (stereo not given) + CC1OCC2(CCN(c3cnc(Sc4ccnc(N)c4Cl)c(N)n3)CC2)C1N
inactive: viability, T/C [1] 91.3% | viability, T/C [2] 87.2% | viability, T/C [3] 67.6% | viability, T/C [4] 60.1% | viability, T/C [5] 53% | viability, T/C [6] 52.1% | viability, T/C [7] 81% | viability, T/C [8] 75.5% | viability, T/C [9] 61.4% | viability, T/C [10] 60.2% | viability, T/C [11] 54.7% | viability, T/C [12] 49.8% | viability, T/C [13] 80.7% | viability, T/C [14] 69.1% | viability, T/C [15] 63% | viability, T/C [16] 58.4% | viability, T/C [17] 47.9% | viability, T/C [18] 42.7% | viability, T/C [19] 73.5% | viability, T/C [20] 67.2% | viability, T/C [21] 56.9% | viability, T/C [22] 56% | viability, T/C [23] 45.9% | viability, T/C [24] 42.2% | viability, T/C [25] 65.3% | viability, T/C [26] 59.7% | viability, T/C [27] 53.8% | viability, T/C [28] 49.2% | viability, T/C [29] 43.2% | viability, T/C [30] 41%
852 nM: IC50 (second compound 1 µM)
> 3160 nM: IC50 (second compound 0.1 µM) | IC50 (second compound 0.316 µM)
236 nM: IC50 (second compound 10 µM)
573 nM: IC50 (second compound 3.16 µM)

CCNC(=O)CC1N=C(c2ccc(Cl)cc2)c2cc(OC)ccc2-n2c(C)nnc21 (stereo not given) + CC1OCC2(CCN(c3cnc(Sc4ccnc(N)c4Cl)c(N)n3)CC2)C1N
256 nM: IC50 (second compound 10 µM)
676 nM: IC50 (second compound 0.316 µM)
inactive: viability, T/C [2] 92.8% | viability, T/C [3] 95% | viability, T/C [4] 67.2% | viability, T/C [5] 54.5% | viability, T/C [6] 43.9% | viability, T/C [31] 49.5% | viability, T/C [8] 86.1% | viability, T/C [9] 80% | viability, T/C [10] 59.2% | viability, T/C [11] 45.2% | viability, T/C [12] 44% | viability, T/C [32] 40.2% | viability, T/C [14] 80.5% | viability, T/C [15] 80% | viability, T/C [16] 56.6% | viability, T/C [17] 45% | viability, T/C [18] 38.5% | viability, T/C [33] 33.9% | viability, T/C [20] 74% | viability, T/C [21] 72.5% | viability, T/C [22] 54.1% | viability, T/C [23] 37.9% | viability, T/C [24] 33.5% | viability, T/C [34] 30.1% | viability, T/C [26] 66.9% | viability, T/C [27] 61.9% | viability, T/C [28] 47.5% | viability, T/C [29] 31.6% | viability, T/C [30] 26.4% | viability, T/C [35] 26.2%
1000 nM: IC50 (second compound 0.1 µM)
600 nM: IC50 (second compound 1 µM)
437 nM: IC50 (second compound 3.16 µM)

Cn1nccc1Nc1nccc(-c2cc3c(s2)C(C)(C)N(CCN2CCOCC2)C3=O)n1 + CC1OCC2(CCN(c3cnc(Sc4ccnc(N)c4Cl)c(N)n3)CC2)C1N
105 nM: IC50 (second compound 10 µM)
330 nM: IC50 (second compound 0.1 µM)
191 nM: IC50 (second compound 3.16 µM)
223 nM: IC50 (second compound 1 µM)
239 nM: IC50 (second compound 0.316 µM)
inactive: viability, T/C [2] 87.4% | viability, T/C [3] 68.4% | viability, T/C [4] 50.4% | viability, T/C [5] 38.2% | viability, T/C [6] 32.8% | viability, T/C [31] 28.8% | viability, T/C [8] 82.8% | viability, T/C [9] 65.9% | viability, T/C [10] 43.2% | viability, T/C [11] 35.7% | viability, T/C [12] 30.7% | viability, T/C [32] 26.6% | viability, T/C [14] 74.9% | viability, T/C [15] 61.7% | viability, T/C [16] 44.8% | viability, T/C [17] 33.3% | viability, T/C [18] 27.2% | viability, T/C [33] 26% | viability, T/C [20] 64.7% | viability, T/C [21] 59.9% | viability, T/C [22] 42.2% | viability, T/C [23] 28.8% | viability, T/C [24] 25.8% | viability, T/C [34] 24.1% | viability, T/C [26] 57% | viability, T/C [27] 51.4% | viability, T/C [28] 35.9% | viability, T/C [29] 26.6% | viability, T/C [30] 22.4% | viability, T/C [35] 20.6%

CC(=O)OC12COC1CC(O)C1(C)C(=O)C(O)C3=C(C)C(OC(=O)C(O)C(NC(=O)OC(C)(C)C)c4ccccc4)CC(O)(C(OC(=O)c4ccccc4)C21)C3(C)C (stereo not given) + CNCc1ccccc1-c1csc(C(C)Nc2nc(C)nc3cc(OC)c(OC)cc23)c1
active: viability, T/C [25] 0.32% | viability, T/C [26] 0.17% | viability, T/C [27] 0.21% | viability, T/C [28] 0.2% | viability, T/C [29] 0.22% | viability, T/C [30] 0.28%
> 3160 nM: IC50 (second compound 0.1 µM) | IC50 (second compound 0.316 µM) | IC50 (second compound 1 µM)
< 10 nM: IC50 (second compound 3.16 µM) | IC50 (second compound 10 µM)
inactive: viability, T/C [1] 81.2% | viability, T/C [2] 93.5% | viability, T/C [3] 97% | viability, T/C [4] 96.9% | viability, T/C [5] 105% | viability, T/C [6] 104% | viability, T/C [7] 85.6% | viability, T/C [8] 92.2% | viability, T/C [9] 96.2% | viability, T/C [10] 98.9% | viability, T/C [11] 101% | viability, T/C [12] 100% | viability, T/C [13] 84.6% | viability, T/C [14] 97.9% | viability, T/C [15] 104% | viability, T/C [16] 101% | viability, T/C [17] 103% | viability, T/C [18] 105% | viability, T/C [19] 0.36% | viability, T/C [20] 93.9% | viability, T/C [21] 1.4% | viability, T/C [22] 0.54% | viability, T/C [23] 13% | viability, T/C [24] 110%
